The supplement of paper PMC11451515

Assays:
Test in all cases: AUC of viability dose-response curve (% viability x log10 dose units); higher = less sensitive
Conditions in all cases: 48 h
[1] = system: NOMO1
Procedure, shortened: (§1)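 Viability of medium-adapted leukemia cells was measured by CellTiter-Glo One luminescence after 48 h at 37°C with library compounds in DMSO. Doses were 11 threefold steps from 47 μM to 0.79 nM, in 1536-well plates at 500 or 1000 cells/well. Signals were normalised per plate to DMSO and cell-free wells and fitted with a four-parameter log-logistic model on log10 dose. Area under the curve was integrated by trapezoidal rule, with curves exceeding full viability scaled and failed quality-control curves removed.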

[2] = system: P12-Ichikawa
Procedure, shortened: as §1

[3] = system: SEM cells
Procedure, shortened: as §1

[4] = RPMI 5 mM glucose + 10% dialyzed FBS

SMILES	AUC of viability dose-response curve ([1]; HPLM + 10% dialyzed FBS)	AUC of viability dose-response curve ([1]; RPMI 5 mM glucose + 10% FBS)	AUC of viability dose-response curve [1, 4]	AUC of viability dose-response curve ([2]; HPLM + 10% dialyzed FBS)	AUC of viability dose-response curve ([2]; RPMI 5 mM glucose + 10% FBS)	AUC of viability dose-response curve [2, 4]	AUC of viability dose-response curve ([3]; HPLM + 10% dialyzed FBS)	AUC of viability dose-response curve ([3]; RPMI 5 mM glucose + 10% FBS)	AUC of viability dose-response curve [3, 4]
CCOC(=O)N1c2ccc(C(F)(F)F)cc2[C@@H](N(Cc2cc(C(F)(F)F)cc(C(F)(F)F)c2)C(=O)OC)C[C@H]1CC	434	460	470	449	466	471	462	460	468
N#Cc1ccc(Oc2ccc3c(c2)COB3O)cc1	413	463	466	425	463	460	458	458	461
C[C@@H]1CN(Cc2ccc(F)cc2)[C@@H](C)CN1C(=O)c1cc2c(C(=O)C(=O)N(C)C)cn(C)c2cc1Cl	467	474	475	471	472	471	462	413	449
CC1=C(/C=C/C(C)=C/C=C/C(C)=C\C(=O)O)C(C)(C)CCC1	438	408	420	445	400	415	405	450	379
Cc1cc(OCCC[S+](C)(=O)[O-])cc(C)c1-c1cccc(COc2ccc3c(c2)OC[C@H]3CC(=O)O)c1	466	458	434	460	428	430	454	448	445
CC(=O)N[C@@H]1[C@@H](NC(N)=N)\C=C(/O[C@H]1[C@H](O)[C@H](O)CO)C(O)=O	464	463	443	461	466	471	457	421	419
O=S(=O)([O-])CCS.[Na+]	367	341	351	379	383	407	452	443	405
Cc1cn([C@H]2C=C[C@@H](CO)O2)c(=O)[nH]c1=O	474	435	453	468	475	474	465	450	469
COc1cc(CCc2cc(NC(=O)c3ccc(N4C[C@@H](C)N[C@@H](C)C4)cc3)n[nH]2)cc(OC)c1	442	466	455	448	435	414	333	319	332
O=C(Nc1nnc(-c2ccco2)o1)c1cc(-c2ccccc2)nc2ccccc12	393	455	451	379	448	451	442	348	443
CC[C@@H]1[C@@H](C)O[C@@](O)([C@@H](C)[C@H](O)[C@H](C)[C@H]2OC(=O)/C=C/C=C/[C@H](C)[C@@H]([C@@H](C)[C@@H](O)[C@H](C)[C@@]3(O)C[C@@H](O[C@H]4C[C@H](O)[C@H](O)[C@H](C)O4)[C@H](CC)[C@@H](C)O3)OC(=O)/C=C/C=C/[C@@H]2C)C[C@H]1O[C@H]1C[C@H](O)[C@H](O)[C@H](C)O1	370	366	372	374	403	380	368	357	351
Cc1cc(O)c2c(c1)C(=O)c1cccc(O)c1C2=O	460	475	460	465	472	466	445	439	449
CC\12CCC(=O)\C=C1CCC3C2CCC4(C)C3CCC4(O)C#C (configuration not stated)	456	430	428	442	452	421	452	461	458
NC(=O)Nc1sc(-c2ccc(F)cc2)cc1C(N)=O	415	436	415	419	421	414	425	304	402
COc1cc([C@@H]2c3cc4c(cc3[C@H](O)[C@H]3COC(=O)[C@@H]23)OCO4)cc(OC)c1OC	304	280	292	271	279	291	266	280	249
CN(C)C1=CC(=CC=C1)C\2=C\3C(=O)N(NC3=C/C(=O)N2C)C4=CC=CC=C4Cl	292	314	314	312	327	342	322	317	311
NC(=O)[C@H]1CCS[C@@H]2C[C@]3(CCCN3C(=O)Cc3ccc(NC(=O)COc4ccc(Cl)cc4Cl)cc3)C(=O)N12	356	378	409	316	343	362	376	325	362
[O-]C(=O)C/1=N/C(=O)NC(=O)N1	444	434	408	441	427	420	423	412	438
Clc1cccc(-n2nnnc2NCc2ccccc2Oc2ccccn2)c1Cl	472	472	470	458	467	441	439	470	474

SMILES	AUC of viability dose-response curve ([1]; HPLM + 10% dialyzed FBS)	AUC of viability dose-response curve ([1]; RPMI 5 mM glucose + 10% FBS)	AUC of viability dose-response curve [1, 4]	AUC of viability dose-response curve ([2]; HPLM + 10% dialyzed FBS)	AUC of viability dose-response curve ([2]; RPMI 5 mM glucose + 10% FBS)	AUC of viability dose-response curve [2, 4]	AUC of viability dose-response curve ([3]; HPLM + 10% dialyzed FBS)	AUC of viability dose-response curve ([3]; RPMI 5 mM glucose + 10% FBS)	AUC of viability dose-response curve [3, 4]
COc1ccc(OC)c(-c2nnc3ccc(-c4ccc(OC)c(O[C@@H]5CCOC5)c4)nn23)c1	463	477	469	473	458	466	477	470	473
CCC[S+](=O)([O-])Nc1ccc(F)c(C(=O)c2c[nH]c3ncc(Cl)cc23)c1F	403	437	440	439	450	431	409	419	425
CCCC(C)(COC(N)=O)COC(=O)NC(C)C (configuration not stated)	466	451	446	459	455	458	451	443	412
CCN(CCO)CCCOc1ccc2c(Nc3cc(CC(=O)Nc4cccc(F)c4)[nH]n3)ncnc2c1	372	329	355	256	259	287	302	280	282
Cc1ccccc1C(OCCN(C)C)c1ccccc1 (configuration not stated)	462	468	457	446	476	469	453	463	465
C[C@@H]1O[C@@H](O[C@H]2C[C@@H](O)[C@]3(CO)[C@H]4[C@H](O)C[C@]5(C)[C@@H](C6=CC(=O)OC6)CC[C@]5(O)[C@@H]4CC[C@]3(O)C2)[C@H](O)[C@H](O)[C@H]1O	197	248	227	203	235	211	179	234	216
O=C1\C=C/C=C2/[C@H]3CNC[C@H](C3)CN12	447	458	464	457	459	459	462	466	456
C[N]1C=C(C2=CC=CC=C12)\C3=C(\C(=O)NC3=O)C4=C[N](C5CCN(CC5)CC6=NC=CC=C6)C7=C4C=CC=C7	458	424	445	472	475	472	461	446	454
CC[S+](=O)([O-])Nc1ccc2c(c1)/C(=C(/Nc1ccc(CN3CCCCC3)cc1)c1ccccc1)C(=O)N2	335	314	323	276	274	297	223	232	230
C[C@H](CCC(=O)O)[C@H]1CCC2C3C[C@H](O)[C@@H]4C[C@H](O)CC[C@]4(C)C3CC[C@@]21C (some centres not stated)	449	458	459	454	450	463	452	452	469
c1ccc2c(Cc3c[nH]c4ccccc34)c[nH]c2c1	440	434	444	434	420	417	385	396	376
N#C/C(=C\c1ccc(O)c(O)c1)C(=O)NCc1ccccc1	446	447	460	448	436	421	447	440	440
CC(C)(S)[C@@H](N)C(=O)O	469	472	465	471	468	476	439	431	455
COC(=O)Nc1nc2cc(C(=O)c3ccc(F)cc3)ccc2[nH]1	372	426	402	365	377	388	343	363	374
O=C(CCCCCCC(=O)Nc1cccnc1)NO	435	399	432	400	374	368	401	402	375
CCOC(=O)C(C#N)C\1C2=CC(=CC=C2O\C(=C1C(=O)OCC)N)Br (configuration not stated)	445	449	447	467	452	463	450	462	421
O=C(NCCCCN1CCOCC1)c1cc2ccccc2o1	459	462	451	467	440	448	441	440	457
CC[N+](CC)(CC)CCOc1cccc(OCC[N+](CC)(CC)CC)c1OCC[N+](CC)(CC)CC	400	439	445	451	455	456	423	463	477
C[C@]12Cc3cn[nH]c3C[C@@H]1CC[C@@H]1[C@@H]2CC[C@@]2(C)[C@H]1CC[C@]2(C)O	458	467	442	459	466	463	414	473	473
